# According to ChEMBL document CHEMBL2010722, “Structure-activity relationship study of beta-carboline derivatives as haspin kinase inhibitors” (Bioorg Med Chem Lett, 2012):
# Assays:
# [1] = target: Serine/threonine-protein kinase MRCK beta (Homo sapiens) (UniProt Q9Y5S2); assay: Inhibition of MRCKb at 10 uM
# [2] = target: Macrophage colony-stimulating factor 1 receptor (Homo sapiens) (UniProt P07333); assay: Inhibition of FMS at 10 uM
# [3] = target: Rho-associated protein kinase 2 (Homo sapiens) (UniProt O75116); assay: Inhibition of ROCK2 at 10 uM
# [4] = target: Inhibitor of nuclear factor kappa-B kinase subunit alpha (Homo sapiens) (UniProt O15111); assay: Inhibition of IKKa at 10 uM
# Sequence of Inhibitor of nuclear factor kappa-B kinase subunit alpha (Homo sapiens) (O15111 whole entry): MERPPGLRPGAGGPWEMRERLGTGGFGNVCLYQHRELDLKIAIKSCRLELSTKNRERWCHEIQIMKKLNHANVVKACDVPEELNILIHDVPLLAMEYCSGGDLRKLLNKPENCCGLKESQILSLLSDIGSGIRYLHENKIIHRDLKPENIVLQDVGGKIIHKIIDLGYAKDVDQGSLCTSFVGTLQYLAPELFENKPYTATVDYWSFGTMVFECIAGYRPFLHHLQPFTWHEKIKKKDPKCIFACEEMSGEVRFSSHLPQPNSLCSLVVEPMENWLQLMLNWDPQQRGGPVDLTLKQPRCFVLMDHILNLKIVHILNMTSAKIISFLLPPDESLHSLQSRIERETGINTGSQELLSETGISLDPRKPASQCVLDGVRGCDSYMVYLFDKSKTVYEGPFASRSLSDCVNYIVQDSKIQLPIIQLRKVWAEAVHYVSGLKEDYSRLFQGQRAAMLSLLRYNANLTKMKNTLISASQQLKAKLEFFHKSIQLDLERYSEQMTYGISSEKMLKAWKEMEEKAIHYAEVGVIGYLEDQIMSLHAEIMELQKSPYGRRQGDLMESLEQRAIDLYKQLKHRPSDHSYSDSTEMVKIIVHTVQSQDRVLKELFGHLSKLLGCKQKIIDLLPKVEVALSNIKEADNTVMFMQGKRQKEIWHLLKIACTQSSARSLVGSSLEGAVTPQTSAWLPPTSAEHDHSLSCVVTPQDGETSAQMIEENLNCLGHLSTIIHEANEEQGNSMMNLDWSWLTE
# [5] = target: STE20-like serine/threonine-protein kinase (Homo sapiens) (UniProt Q9H2G2); assay: Inhibition of SLK at 10 uM
# [6] = target: Serine/threonine-protein kinase BRSK1 (Homo sapiens) (UniProt Q8TDC3); assay: Inhibition of BRSK1 at 10 uM
# [7] = target: Death-associated protein kinase 1 (Homo sapiens) (UniProt P53355); assay: Inhibition of DAPK1 at 10 uM
# [8] = target: Aurora kinase C (Homo sapiens) (UniProt Q9UQB9); assay: Inhibition of AurC at 10 uM
# [9] = target: High affinity nerve growth factor receptor (Homo sapiens) (UniProt P04629); assay: Inhibition of TRKA at 10 uM
# [10] = target: Mitogen-activated protein kinase kinase kinase 5 (Homo sapiens) (UniProt Q99683); assay: Inhibition of MAP3K5 at 10 uM
# [11] = target: Ephrin type-B receptor 1 (Homo sapiens) (UniProt P54762); assay: Inhibition of EPHB1 at 10 uM
# [12] = target: Cyclin-dependent kinase 5/CDK5 activator 1 (Homo sapiens) (UniProt Q00535+Q15078); assay: Inhibition of CDK5-p25 at 10 uM; assay type: protein-complex assay
# [13] = target: Ephrin type-A receptor 7 (Homo sapiens) (UniProt Q15375); assay: Inhibition of EPHA7 at 10 uM
# [14] = target: Cyclin-dependent kinase 1/cyclin B1 (Homo sapiens) (UniProt P06493+P14635); assay: Inhibition of CDC2-CycB1 at 10 uM; assay type: protein-complex assay
# [15] = target: Serine/threonine-protein kinase 38-like (Homo sapiens) (UniProt Q9Y2H1); assay: Inhibition of NDR2 at 10 uM
# [16] = target: Homeodomain-interacting protein kinase 4 (Homo sapiens) (UniProt Q8NE63); assay: Inhibition of HIPK4 at 10 uM
# [17] = target: Mitogen-activated protein kinase kinase kinase 12 (Homo sapiens) (UniProt Q12852); assay: Inhibition of DLK at 10 uM
# [18] = target: Serine/threonine-protein kinase pim-3 (Homo sapiens) (UniProt Q86V86); assay: Inhibition of PIM3 at 10 uM
# [19] = target: PAS domain-containing serine/threonine-protein kinase (Homo sapiens) (UniProt Q96RG2); assay: Inhibition of PASK at 10 uM
# [20] = tested on: Serine/threonine-protein kinase B-raf (Homo sapiens), P15056 [V600E]; assay: Inhibition of BRAF V600E mutant at 10 uM
# [21] = target: Serine/threonine-protein kinase PAK 1 (Homo sapiens) (UniProt Q13153); assay: Inhibition of PAK1 at 10 uM
# Sequence of Serine/threonine-protein kinase PAK 1 (Homo sapiens) (Q13153 whole entry): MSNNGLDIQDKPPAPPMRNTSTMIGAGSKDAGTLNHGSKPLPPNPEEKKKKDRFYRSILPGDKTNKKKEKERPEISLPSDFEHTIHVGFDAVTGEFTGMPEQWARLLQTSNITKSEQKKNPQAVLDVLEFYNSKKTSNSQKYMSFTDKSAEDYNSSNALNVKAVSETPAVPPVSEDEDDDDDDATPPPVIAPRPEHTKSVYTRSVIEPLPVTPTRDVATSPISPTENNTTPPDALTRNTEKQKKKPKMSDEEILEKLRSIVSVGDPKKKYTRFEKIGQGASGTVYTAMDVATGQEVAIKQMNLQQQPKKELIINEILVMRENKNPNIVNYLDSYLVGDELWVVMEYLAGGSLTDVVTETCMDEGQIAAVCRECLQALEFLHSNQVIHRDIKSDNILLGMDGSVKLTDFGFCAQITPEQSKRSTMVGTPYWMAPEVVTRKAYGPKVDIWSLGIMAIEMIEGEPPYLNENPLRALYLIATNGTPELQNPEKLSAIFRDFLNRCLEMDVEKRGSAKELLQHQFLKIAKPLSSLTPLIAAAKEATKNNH
# [22] = target: Tyrosine-protein kinase Tec (Homo sapiens) (UniProt P42680); assay: Inhibition of TEC at 10 uM
# [23] = target: Lymphokine-activated killer T-cell-originated protein kinase (Homo sapiens) (UniProt Q96KB5); assay: Inhibition of PBK at 10 uM
# Sequence of Lymphokine-activated killer T-cell-originated protein kinase (Homo sapiens) (Q96KB5 whole entry): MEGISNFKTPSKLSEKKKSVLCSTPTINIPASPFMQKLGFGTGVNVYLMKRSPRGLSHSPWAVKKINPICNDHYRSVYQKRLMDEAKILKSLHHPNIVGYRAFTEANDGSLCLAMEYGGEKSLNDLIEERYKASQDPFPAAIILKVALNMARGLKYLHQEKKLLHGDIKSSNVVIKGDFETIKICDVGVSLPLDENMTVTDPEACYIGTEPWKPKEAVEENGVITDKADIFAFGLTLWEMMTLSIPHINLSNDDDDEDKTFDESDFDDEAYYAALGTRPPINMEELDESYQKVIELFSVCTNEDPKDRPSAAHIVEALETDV
# [24] = target: Cytoplasmic tyrosine-protein kinase BMX (Homo sapiens) (UniProt P51813); assay: Inhibition of BMX at 10 uM
# [25] = target: Eukaryotic translation initiation factor 2-alpha kinase 3 (Homo sapiens) (UniProt Q9NZJ5); assay: Inhibition of PEK at 10 uM
# [26] = target: Citron Rho-interacting kinase (Homo sapiens) (UniProt O14578); assay: Inhibition of CRIK at 10 uM
# [27] = target: Serine/threonine-protein kinase N1 (Homo sapiens) (UniProt Q16512); assay: Inhibition of PKN1 at 10 uM
# [28] = target: Serine/threonine-protein kinase PAK 5 (Homo sapiens) (UniProt Q9P286); assay: Inhibition of PAK5 (PAK7) at 10 uM
# [29] = target: Platelet-derived growth factor receptor beta (Homo sapiens) (UniProt P09619); assay: Inhibition of PDGFRb at 10 uM
# Liver = assay: Half life in mouse liver microsome at 3 uM; assay type: ADME; details: microsomes
# [30] = target: Mitogen-activated protein kinase 9 (Homo sapiens) (UniProt P45984); assay: Inhibition of JNK2 at 10 uM
# [31] = target: Ephrin type-A receptor 3 (Homo sapiens) (UniProt P29320); assay: Inhibition of EPHA3 at 10 uM
# [32] = target: Serine/threonine-protein kinase 4 (Homo sapiens) (UniProt Q13043); assay: Inhibition of MST1 at 10 uM
# [33] = target: cAMP-dependent protein kinase catalytic subunit alpha (Homo sapiens) (UniProt P17612); assay: Inhibition of PKACa at 10 uM
# [34] = target: Serine/threonine-protein kinase 26 (Homo sapiens) (UniProt Q9P289); assay: Inhibition of MST4 at 10 uM
# [35] = target: Casein kinase I isoform alpha (Homo sapiens) (UniProt P48729); assay: Inhibition of CK1a at 10 uM
# [36] = target: Tyrosine-protein kinase JAK2 (Homo sapiens) (UniProt O60674); assay: Inhibition of JAK2 at 10 uM
# [37] = target: Serine/threonine-protein kinase Nek6 (Homo sapiens) (UniProt Q9HC98); assay: Inhibition of NEK6 at 10 uM
# [38] = target: Serine/threonine-protein kinase 3 (Homo sapiens) (UniProt Q13188); assay: Inhibition of MST2 at 10 uM
# Sequence of Serine/threonine-protein kinase 3 (Homo sapiens) (Q13188 whole entry): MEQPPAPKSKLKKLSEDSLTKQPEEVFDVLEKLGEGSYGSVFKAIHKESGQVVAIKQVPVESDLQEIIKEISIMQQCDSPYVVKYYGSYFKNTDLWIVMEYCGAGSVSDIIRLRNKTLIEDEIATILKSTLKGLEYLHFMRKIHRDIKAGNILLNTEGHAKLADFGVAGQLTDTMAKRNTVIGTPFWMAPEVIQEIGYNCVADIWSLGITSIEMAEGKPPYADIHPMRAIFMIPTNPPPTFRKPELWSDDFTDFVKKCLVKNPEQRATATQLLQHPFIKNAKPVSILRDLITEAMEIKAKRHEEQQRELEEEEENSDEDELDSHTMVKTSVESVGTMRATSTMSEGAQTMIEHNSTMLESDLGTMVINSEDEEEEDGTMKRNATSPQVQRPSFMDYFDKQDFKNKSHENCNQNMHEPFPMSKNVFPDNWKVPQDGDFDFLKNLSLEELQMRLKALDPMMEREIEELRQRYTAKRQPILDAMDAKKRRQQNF
# [39] = target: Ephrin type-A receptor 8 (Homo sapiens) (UniProt P29322); assay: Inhibition of EPHA8 at 10 uM
# Sequence of Ephrin type-A receptor 8 (Homo sapiens) (P29322 whole entry): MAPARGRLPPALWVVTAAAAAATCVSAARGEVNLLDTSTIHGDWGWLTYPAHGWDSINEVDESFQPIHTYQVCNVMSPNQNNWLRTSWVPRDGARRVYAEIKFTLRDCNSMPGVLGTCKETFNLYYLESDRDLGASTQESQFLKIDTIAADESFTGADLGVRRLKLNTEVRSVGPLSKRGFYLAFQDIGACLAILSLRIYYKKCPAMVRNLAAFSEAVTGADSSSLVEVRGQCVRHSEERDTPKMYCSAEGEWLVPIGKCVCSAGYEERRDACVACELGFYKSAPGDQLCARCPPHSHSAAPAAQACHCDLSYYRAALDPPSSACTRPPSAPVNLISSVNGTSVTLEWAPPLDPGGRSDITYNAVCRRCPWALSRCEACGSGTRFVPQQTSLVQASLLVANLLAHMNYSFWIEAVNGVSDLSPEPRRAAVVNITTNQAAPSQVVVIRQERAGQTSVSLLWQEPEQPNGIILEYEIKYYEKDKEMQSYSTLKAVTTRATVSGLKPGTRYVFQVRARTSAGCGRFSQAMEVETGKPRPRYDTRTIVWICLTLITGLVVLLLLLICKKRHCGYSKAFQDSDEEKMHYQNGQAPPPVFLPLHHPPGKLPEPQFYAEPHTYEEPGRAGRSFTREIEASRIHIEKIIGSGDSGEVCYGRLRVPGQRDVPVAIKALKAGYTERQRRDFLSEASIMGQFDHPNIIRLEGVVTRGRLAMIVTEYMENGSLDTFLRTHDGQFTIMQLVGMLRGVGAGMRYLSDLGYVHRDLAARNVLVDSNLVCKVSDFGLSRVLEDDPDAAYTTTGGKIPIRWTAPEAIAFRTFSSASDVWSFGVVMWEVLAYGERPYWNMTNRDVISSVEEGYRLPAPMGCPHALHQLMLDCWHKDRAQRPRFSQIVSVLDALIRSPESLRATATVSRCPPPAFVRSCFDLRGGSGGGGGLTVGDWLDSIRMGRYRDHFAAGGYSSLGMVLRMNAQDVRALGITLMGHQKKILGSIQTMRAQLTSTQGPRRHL
# [40] = target: Mitogen-activated protein kinase 1 (Homo sapiens) (UniProt P28482); assay: Inhibition of Erk2 at 10 uM
# [41] = target: Tyrosine-protein kinase HCK (Homo sapiens) (UniProt P08631); assay: Inhibition of HCK at 10 uM
# Sequence of Tyrosine-protein kinase HCK (Homo sapiens) (P08631 2-526 limits assumed): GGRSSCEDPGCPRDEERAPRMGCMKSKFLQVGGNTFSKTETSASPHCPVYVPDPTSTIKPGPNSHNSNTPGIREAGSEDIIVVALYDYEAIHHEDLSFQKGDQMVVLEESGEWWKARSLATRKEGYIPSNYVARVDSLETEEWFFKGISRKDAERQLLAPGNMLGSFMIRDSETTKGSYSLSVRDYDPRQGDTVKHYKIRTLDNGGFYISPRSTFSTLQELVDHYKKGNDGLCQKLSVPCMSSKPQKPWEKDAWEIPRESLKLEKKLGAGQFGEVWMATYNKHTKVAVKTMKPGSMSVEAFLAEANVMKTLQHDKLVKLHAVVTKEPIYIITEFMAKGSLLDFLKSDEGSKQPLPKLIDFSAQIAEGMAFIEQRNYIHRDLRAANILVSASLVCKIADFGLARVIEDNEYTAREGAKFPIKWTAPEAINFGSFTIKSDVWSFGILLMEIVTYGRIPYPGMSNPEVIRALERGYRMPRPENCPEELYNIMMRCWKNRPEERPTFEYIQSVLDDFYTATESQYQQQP
# [42] = target: Tyrosine-protein kinase Lyn (Homo sapiens) (UniProt P07948); assay: Inhibition of LYNa at 10 uM
# [43] = target: Serine/threonine-protein kinase Sgk2 (Homo sapiens) (UniProt Q9HBY8); assay: Inhibition of SGK2 at 10 uM
# [44] = target: Serine/threonine-protein kinase SIK2 (Homo sapiens) (UniProt Q9H0K1); assay: Inhibition of QIK at 10 uM
# [45] = target: Serine/threonine-protein kinase Nek7 (Homo sapiens) (UniProt Q8TDX7); assay: Inhibition of NEK7 at 10 uM
# [46] = target: Protein kinase C iota type (Homo sapiens) (UniProt P41743); assay: Inhibition of PKCi at 10 uM
# Sequence of Protein kinase C iota type (Homo sapiens) (P41743 whole entry): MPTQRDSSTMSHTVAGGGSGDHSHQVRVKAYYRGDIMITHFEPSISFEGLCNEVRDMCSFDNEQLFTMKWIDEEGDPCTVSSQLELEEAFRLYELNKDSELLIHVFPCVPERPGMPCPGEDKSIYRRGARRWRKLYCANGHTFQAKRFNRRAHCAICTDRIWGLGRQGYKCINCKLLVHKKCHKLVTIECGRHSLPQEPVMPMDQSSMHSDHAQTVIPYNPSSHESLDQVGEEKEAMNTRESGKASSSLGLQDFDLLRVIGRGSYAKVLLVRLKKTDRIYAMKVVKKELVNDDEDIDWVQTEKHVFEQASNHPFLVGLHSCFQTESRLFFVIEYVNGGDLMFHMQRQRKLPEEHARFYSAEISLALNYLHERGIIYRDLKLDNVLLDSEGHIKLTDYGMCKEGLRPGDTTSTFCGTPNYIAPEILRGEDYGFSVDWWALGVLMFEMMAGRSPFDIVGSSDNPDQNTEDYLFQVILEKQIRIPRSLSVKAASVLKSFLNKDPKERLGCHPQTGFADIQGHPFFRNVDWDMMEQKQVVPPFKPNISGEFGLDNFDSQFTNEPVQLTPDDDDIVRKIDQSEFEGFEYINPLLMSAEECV
# [47] = target: BDNF/NT-3 growth factors receptor (Homo sapiens) (UniProt Q16620); assay: Inhibition of TRKB at 10 uM
# Sequence of BDNF/NT-3 growth factors receptor (Homo sapiens) (Q16620 32-822 limits assumed): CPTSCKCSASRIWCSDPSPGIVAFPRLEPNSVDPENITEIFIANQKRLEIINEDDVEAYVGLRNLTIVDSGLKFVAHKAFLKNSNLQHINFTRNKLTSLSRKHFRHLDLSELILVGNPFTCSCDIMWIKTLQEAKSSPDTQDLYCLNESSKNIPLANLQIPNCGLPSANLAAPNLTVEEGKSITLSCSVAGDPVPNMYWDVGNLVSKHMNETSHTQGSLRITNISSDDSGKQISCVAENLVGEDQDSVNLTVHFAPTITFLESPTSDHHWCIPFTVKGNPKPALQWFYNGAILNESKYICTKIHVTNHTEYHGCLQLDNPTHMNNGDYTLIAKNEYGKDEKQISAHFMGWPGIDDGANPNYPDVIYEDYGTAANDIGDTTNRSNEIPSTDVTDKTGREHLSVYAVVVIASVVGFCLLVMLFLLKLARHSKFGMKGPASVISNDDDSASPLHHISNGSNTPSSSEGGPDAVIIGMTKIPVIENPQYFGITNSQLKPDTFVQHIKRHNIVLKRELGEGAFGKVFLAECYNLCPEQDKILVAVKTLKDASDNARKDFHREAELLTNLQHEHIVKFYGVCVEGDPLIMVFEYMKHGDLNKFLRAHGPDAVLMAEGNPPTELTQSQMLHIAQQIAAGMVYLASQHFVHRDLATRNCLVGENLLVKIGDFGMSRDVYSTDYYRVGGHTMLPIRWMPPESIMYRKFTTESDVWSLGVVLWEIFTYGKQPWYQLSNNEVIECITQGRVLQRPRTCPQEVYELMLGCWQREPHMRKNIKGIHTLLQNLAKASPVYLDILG
structure (smiles),measurement,setting,value
COc1ccc2c3ccnc(C(F)(F)F)c3n(CCCCN)c2c1,inhibition,[1],27%
same,inhibition,[2],6%
same,inhibition,[3],87%
same,inhibition,[4],7%
same,inhibition,[5],20%
same,inhibition,[6],34%
same,inhibition,[7],41%
same,inhibition,[8],1%
same,inhibition,[9],8%
same,inhibition,[10],17%
same,inhibition,[11],0%
same,inhibition,[12],39%
same,inhibition,[13],2%
same,inhibition,[14],55%
same,inhibition,[15],2%
same,inhibition,[16],28%
same,inhibition,[17],3%
same,inhibition,[18],89%
same,inhibition,[19],92%
same,inhibition,[20],8%
same,inhibition,[21],3%
same,inhibition,[22],2%
same,inhibition,[23],12%
same,inhibition,[24],3%
same,inhibition,[25],0%
same,inhibition,[26],86%
same,inhibition,[27],52%
same,inhibition,[28],6%
same,inhibition,[29],73%
same,t1/2,Liver,5.68 h
same,inhibition,[30],8%
same,inhibition,[31],0%
same,inhibition,[32],14%
same,inhibition,[33],28%
same,inhibition,[34],0%
same,inhibition,[35],73%
same,inhibition,[36],0%
same,inhibition,[37],5%
same,inhibition,[38],3%
same,inhibition,[39],0%
same,inhibition,[40],7%
same,inhibition,[41],1%
same,inhibition,[42],7%
same,inhibition,[43],20%
same,inhibition,[44],26%
same,inhibition,[45],0%
same,inhibition,[46],9%
same,inhibition,[47],7%
